Data: ChEMBL document CHEMBL1201862, “PubChem BioAssay data set” (2004)
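Five compound concentrations were applied to cells in 96-well plates for 48 hours; endpoints were derived by simple linear interpolation of the resulting dose-response curve. At the GI50, growth is halved.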 Activity calls are given as the source filed them. Rule as the data show it: active = GI50 up to about 1.1 µM and inactive = higher.

How the values were obtained:
Test in all cases: NCI tumour cell line growth inhibition, 48 h
SK-OV-3 = test system: SK-OV-3
OVCAR-4 = test system: OVCAR-4
BT-549 = test system: BT-549
SF-268 = test system: SF-268
PC-3 = test system: PC-3
RPMI-8226 = test system: RPMI-8226
COLO 205 = test system: COLO 205
SNB-19 = test system: SNB-19
RXF 393 = test system: RXF 393
UO-31 = test system: UO-31
HOP-62 = test system: HOP-62
UACC-62 = test system: UACC-62
K562 = test system: K562
NCI/ADR-RES = test system: NCI/ADR-RES
LOX IMVI = test system: LOX IMVI
EKVX = test system: EKVX
DU-145 = test system: DU-145
HCT-116 = test system: HCT-116
786-0 = test system: 786-0
NCI-H522 = test system: NCI-H522

Structure (SMILES) | GI50 (SK-OV-3) | GI50 (OVCAR-4) | GI50 (BT-549) | GI50 (SF-268) | GI50 (PC-3) | GI50 (RPMI-8226) | GI50 (COLO 205) | GI50 (SNB-19) | GI50 (RXF 393) | GI50 (UO-31) | GI50 (HOP-62) | GI50 (UACC-62) | GI50 (K562) | GI50 (NCI/ADR-RES) | GI50 (LOX IMVI) | GI50 (EKVX) | GI50 (DU-145) | GI50 (HCT-116) | GI50 (786-0) | GI50 (NCI-H522)
Nc1cc(O)c2c(c1O)C(=O)C=CC2=O | 47 µM (inactive) | 10.8 µM (inactive) | 16.7 µM (inactive) | 22.9 µM (inactive) | 19.5 µM (inactive) | 5.2 µM (inactive) | 6.62 µM (inactive) | 23.8 µM (inactive) | 6.93 µM (inactive) | 10.9 µM (inactive) | 27.3 µM (inactive) | 11.4 µM (inactive) | 5.78 µM (inactive) | 10 µM (inactive) | 5.58 µM (inactive) | 17.9 µM (inactive) | 18.2 µM (inactive) | 5.19 µM (inactive) | 7.89 µM (inactive) | 5.9 µM (inactive)
NNC1=NC(=O)NC(=O)C1 | > 100 µM (inactive) | > 100 µM (inactive) | > 100 µM (inactive) | > 100 µM (inactive) | > 100 µM (inactive) | > 100 µM (inactive) | > 100 µM (inactive) | > 100 µM (inactive) | > 100 µM (inactive) | > 100 µM (inactive) | > 100 µM (inactive) | > 100 µM (inactive) | > 100 µM (inactive) | > 100 µM (inactive) | > 100 µM (inactive) | > 100 µM (inactive) | > 100 µM (inactive) | > 100 µM (inactive) | > 100 µM (inactive) | > 100 µM (inactive)
O=C1C=CC(=O)c2c(O)c(N3CCN(c4ccccn4)CC3)cc(O)c21 | 28.1 µM (inactive) | 11.6 µM (inactive) | 10.7 µM (inactive) | 11.9 µM (inactive) | 16.2 µM (inactive) | 4.68 µM (inactive) | 5.35 µM (inactive) | 19.2 µM (inactive) | 7.26 µM (inactive) | 8.28 µM (inactive) | 21 µM (inactive) | 5.9 µM (inactive) | 4.38 µM (inactive) | 2.33 µM (inactive) | 3.95 µM (inactive) | 23.9 µM (inactive) | 12.6 µM (inactive) | 2.85 µM (inactive) | 7.24 µM (inactive) | 5.06 µM (inactive)
N#Cc1c(-c2ccccc2)cc(-c2ccc(Cl)cc2)[nH]c1=S | 27.4 µM (inactive) | 42.6 µM (inactive) | 41.5 µM (inactive) | 41.3 µM (inactive) | 27.1 µM (inactive) | 29.2 µM (inactive) | 25.4 µM (inactive) | 32.8 µM (inactive) | 34 µM (inactive) | 24.8 µM (inactive) | 50.1 µM (inactive) | 27.9 µM (inactive) | 34 µM (inactive) | 39.4 µM (inactive) | 25.5 µM (inactive) | 30.4 µM (inactive) | 53.6 µM (inactive) | 33.1 µM (inactive) | 53.3 µM (inactive) | 27.4 µM (inactive)
CC1OC(OC2C[C@](O)(C(=O)CBr)Cc3c(O)c4c(c(O)c32)C(=O)c2ccccc2C4=O)C(F)C(O)C1O (stereo not given in full) | 33.6 µM (inactive) | 23.6 µM (inactive) | 24.7 µM (inactive) | 13.5 µM (inactive) | 13.4 µM (inactive) | 1.46 µM (inactive) | 9.73 µM (inactive) | 5.86 µM (inactive) | 18.5 µM (inactive) | 1.22 µM (inactive) | 3.72 µM (inactive) | 10.8 µM (inactive) | 2.56 µM (inactive) | 15.8 µM (inactive) | 10 µM (inactive) | 46.6 µM (inactive) | 5.28 µM (inactive) | 5.83 µM (inactive) | 3.66 µM (inactive) | 6.18 µM (inactive)
CN(C)c1ccccc1CN1CCCN(Cc2ccccc2N(C)C)C1c1ccncc1 | 16.5 µM (inactive) | 15 µM (inactive) | 16.9 µM (inactive) | 18.8 µM (inactive) | 17.9 µM (inactive) | 5.75 µM (inactive) | 14.9 µM (inactive) | 12.9 µM (inactive) | 10.2 µM (inactive) | 5.02 µM (inactive) | 15.4 µM (inactive) | 14.4 µM (inactive) | 7.41 µM (inactive) | 24.1 µM (inactive) | 13.6 µM (inactive) | 13.7 µM (inactive) | 16.9 µM (inactive) | 11.2 µM (inactive) | 13.1 µM (inactive) | 13 µM (inactive)
CC[C@H]1CN2CCc3cc(OC)c(OC)cc3[C@@H]2C[C@@H]1C[C@H]1NCCc2c1[nH]c1ccc(O)cc21 [TUBULOSINE] | 0.0222 µM (active) | < 0.01 µM (active) | 0.191 µM (active) | < 0.0105 µM (active) | < 0.0156 µM (active) | < 0.0133 µM (active) | < 0.01 µM (active) | < 0.01 µM (active) | 0.016 µM (active) | 0.326 µM (active) | < 0.01 µM (active) | 0.0182 µM (active) | < 0.013 µM (active) | 1.73 µM (inactive) | < 0.01 µM (active) | 0.0294 µM (active) | < 0.01 µM (active) | 0.0102 µM (active) | < 0.01 µM (active) | < 0.01 µM (active)
